In patent publication US20190381017A1, “Compositions Comprising Serdexmethylphenidate Conjugates And Methods Of Use Thereof” (KemPharm, Inc., priority 2018, published 2019):
Counter-ions that a name gives are not always drawn.

Key:
[1] = test system: recreational stimulant users; experiment: Intravenous abuse potential, VAS pharmacodynamic scores (Example 2); type: in vivo, human
Description: “Drug liking” score, used herein, is the score used to assess the degree that a human participant likes a drug effect at the time the question is being asked (that is, at the moment). It is scored using a 0 to 100 point bipolar visual analogue scale (VAS) anchored in the center with a neutral anchor of “neither like nor dislike” (score of 50), on the left with “strong disliking” (score of 0) and on the right with “strong liking” (score of 100).
“Euphoria” or “Feeling High” score, used herein, is the term to describe the score used to assess the degree that a human participant is high at the time the question is being asked (that is, at the moment). It is scored using a 0 to 100 point unipolar visual analogue scale (VAS) anchored on the left with “Not at All” (score of 0) and on the right with “Extremely” (score of 100).
“Take Drug Again” score, used herein, is the term to describe the score used to assess the degree that a human participant wants to take the drug again, if given the opportunity, based on his/her opinion now, i.e., at the time the question is being asked. It is scored using a 0 to 100 point unipolar visual analogue scale (VAS) anchored on the left with “Definitely Would Not” (score of 0) and on the right with “Definitely Would” (score of 100).
“Overall Drug Liking” score, used herein, is the term to describe the score used to assess the human subject's global perception of drug liking (i.e., the subjective effects over the whole course of the drug experience including any carryover effects). Subjects respond to the statement “Overall, my liking for this drug is.” The question is scored using a 0-100 point bipolar VAS anchored on the left with “Strong Disliking” (score of 0); “Neither Like nor Dislike” (score of 50) in the middle, and anchored on the right with “Strong Liking” (score of 100). This scale has the advantage of the human subject being relatively less affected or unaffected by acute study drug effects (if any) by the time of the assessment.
“Good Effects” score, used herein, is the term to describe the score used to assess the degree that a human participant is feeling good drug effects at the time the question is being asked (that is, at the moment). Subjects respond to the statement “At this moment, I can feel good drug effects.” It is scored using a 0 to 100 point unipolar visual analogue scale (VAS) anchored on the left with “Not at All” (score of 0) and on the right with “Extremely” (score of 100).
Safety assessments were performed throughout the study.

[2] = test system: recreational stimulant users; experiment: Treatment-emergent adverse events, intravenous study (Example 2); details: SDX Cl 30 mg (N=31), d-MPH HCl 15 mg (N=30)
Procedure: A study was conducted in humans to assess the intravenous abuse potential of serdexmethylphenidate relative to unconjugated d-methylphenidate and placebo in recreational stimulant abusers. This was a Phase 1, randomized, double-blind study in which serdexmethylphenidate and d-methylphenidate were administered intravenously in recreational stimulant users with a history of non-oral abuse. In Part A of the study, subjects (Cohort 1) participated in a dose-escalation phase to determine the optimal dose of intravenous d-methylphenidate based on tolerability and abuse-related pharmacodynamic assessments. […] The doses of serdexmethylphenidate and d-methylphenidate are equivalent with respect to molar amount of d-methylphenidate. FDA-recommended abuse potential measures and blood samples were collected at different times after dosing. Safety assessments were performed throughout the study.

[3] = SDX Cl 30 mg vs placebo, bipolar VAS
[4] = SDX Cl 30 mg vs placebo, unipolar VAS
[5] = SDX Cl 30 mg, d-MPH HCl 15 mg, 12 hours
[6] = SDX Cl 30 mg, d-MPH HCl 15 mg, 12 hours, unipolar VAS
[7] = SDX Cl 30 mg, d-MPH HCl 15 mg, 24 hours
[8] = SDX Cl 30 mg, d-MPH HCl 15 mg, 24 hours, unipolar VAS
[9] = SDX Cl 30 mg, d-MPH HCl 15 mg, bipolar VAS
[10] = SDX Cl 30 mg, d-MPH HCl 15 mg, unipolar VAS
[11] = d-MPH HCl 15 mg vs SDX Cl 30 mg, bipolar VAS
[12] = d-MPH HCl 15 mg vs SDX Cl 30 mg, unipolar VAS

With COC(=O)[C@H](c1ccccc1)[C@H]1CCCCN1C(=O)OC[n+]1cccc(C(=O)N[C@@H](CO)C(=O)O)c1.[Cl-] [serdexmethylphenidate chloride] the “Mean difference Overall Drug Liking, 12 hours” value [1, 3] was 2.8, the “Mean difference Overall Drug Liking, 24 hours” value [1, 3] was 1.2 and the “Mean difference Overall Drug Liking, Emax” value [1, 3] was 1.4. The “Median difference Drug Liking Emax” value [1, 3] was 0.5, the “Mean difference Feeling High Emax” value [1, 4] was 3.4 and the “Mean difference Good Effects Emax” value [1, 4] was 2.2. For the same compound, the “Mean difference Take Drug Again, 12 hours” value [1, 4] was 9.1, the “Mean difference Take Drug Again, 24 hours” value [1, 4] was 1.4 and the “Mean difference Take Drug Again, Emax” value [1, 4] was 6.0. For the same compound, the “Mean Overall Drug Liking” value [1, 5] was 53.3, the “Median Overall Drug Liking” value [1, 5] was 50.0 and the “Mean Take Drug Again” value [1, 6] was 17.5. The “Median Take Drug Again” value [1, 6] was 0.0, the “Mean Overall Drug Liking” value [1, 7] was 54.8 and the “Median Overall Drug Liking” value [1, 7] was 50.0. For the same compound, the “Mean Take Drug Again” value [1, 8] was 15.7, the “Median Take Drug Again” value [1, 8] was 0.0 and the “Drug Liking Emax (mean)” value [1, 9] was 56.6. The “Drug Liking Emax (median)” value [1, 9] was 50.5, the “Overall Drug Liking Emax (mean)” value [1, 9] was 55.2 and the “Overall Drug Liking Emax (median)” value [1, 9] was 50.0. For the same compound, the “Feeling High Emax (mean)” value [1, 10] was 14.5, the “Feeling High Emax (median)” value [1, 10] was 0.0 and the “Good Effects Emax (mean)” value [1, 10] was 15.5. For the same compound, the “Good Effects Emax (median)” value [1, 10] was 0.0, the “Take Drug Again Emax (mean)” value [1, 10] was 19.6 and the “Take Drug Again Emax (median)” value [1, 10] was 0.0. For the same compound, the “TEAE Change in sustained attention, % of subjects” value [2] was “(0.0) %”, the “TEAE Change in sustained attention, n subjects” value [2] was 0 and the “TEAE Dry mouth, % of subjects” value [2] was “(0.0) %”. For the same compound, the “TEAE Dry mouth, n subjects” value [2] was 0, the “TEAE Energy increased, % of subjects” value [2] was “(6.5) %” and the “TEAE Energy increased, n subjects” value [2] was 2. For the same compound, the “TEAE Euphoric mood, % of subjects” value [2] was “(12.9) %”, the “TEAE Euphoric mood, n subjects” value [2] was 4 and the “TEAE Feeling abnormal, % of subjects” value [2] was “(3.2) %”. The “TEAE Feeling abnormal, n subjects” value [2] was 1, the “TEAE Feeling hot, % of subjects” value [2] was “(6.5) %” and the “TEAE Feeling hot, n subjects” value [2] was 2. The “TEAE Feeling jittery, % of subjects” value [2] was “(0.0) %”, the “TEAE Feeling jittery, n subjects” value [2] was 0 and the “TEAE Feeling of relaxation, % of subjects” value [2] was “(0.0) %”. For the same compound, the “TEAE Feeling of relaxation, n subjects” value [2] was 0, the “TEAE Headache, % of subjects” value [2] was “(3.2) %” and the “TEAE Headache, n subjects” value [2] was 1. The “TEAE Heart rate increased, % of subjects” value [2] was “(0.0) %”, the “TEAE Heart rate increased, n subjects” value [2] was 0 and the “TEAE Hyperhidrosis (sweaty hands), % of subjects” value [2] was “(3.2) %”. For the same compound, the “TEAE Hyperhidrosis (sweaty hands), n subjects” value [2] was 1, the “TEAE Hypervigilance, % of subjects” value [2] was “(12.9) %” and the “TEAE Hypervigilance, n subjects” value [2] was 4. For the same compound, the “TEAE Nausea, % of subjects” value [2] was “(0.0) %”, the “TEAE Nausea, n subjects” value [2] was 0 and the “TEAE Palpitations, % of subjects” value [2] was “(0.0) %”. The “TEAE Palpitations, n subjects” value [2] was 0, the “TEAE Paraesthesia (tingling), % of subjects” value [2] was “(0.0) %” and the “TEAE Paraesthesia (tingling), n subjects” value [2] was 0. For the same compound, the “TEAE Sinus tachycardia, % of subjects” value [2] was “(0.0) %”, the “TEAE Sinus tachycardia, n subjects” value [2] was 0 and the “TEAE Somnolence, % of subjects” value [2] was “(3.2) %”. For the same compound, the “TEAE Somnolence, n subjects” value [2] was 1, the “TEAE Tachycardia, % of subjects” value [2] was “(0.0) %” and the “TEAE Tachycardia, n subjects” value [2] was 0.

COC(=O)[C@H](c1ccccc1)[C@H]1CCCCN1 [d-methylphenidate hydrochloride, d-threo-methylphenidate hydrochloride] was tested, and the “Mean Overall Drug Liking” value [1, 5] was 68.0, the “Median Overall Drug Liking” value [1, 5] was 73.0 and the “Mean Take Drug Again” value [1, 6] was 61.3. For the same compound, the “Median Take Drug Again” value [1, 6] was 69.5, the “Mean Overall Drug Liking” value [1, 7] was 67.3 and the “Median Overall Drug Liking” value [1, 7] was 70.5. For the same compound, the “Mean Take Drug Again” value [1, 8] was 54.9, the “Median Take Drug Again” value [1, 8] was 58.5 and the “Drug Liking Emax (median)” value [1, 9] was 84.5. The “Overall Drug Liking Emax (mean)” value [1, 9] was 72.4, the “Overall Drug Liking Emax (median)” value [1, 9] was 74.0 and the “Feeling High Emax (mean)” value [1, 10] was 77.4. For the same compound, the “Feeling High Emax (median)” value [1, 10] was 79.0, the “Good Effects Emax (mean)” value [1, 10] was 82.1 and the “Good Effects Emax (median)” value [1, 10] was 85.0. The “Take Drug Again Emax (mean)” value [1, 10] was 63.3, the “Take Drug Again Emax (median)” value [1, 10] was 72.5 and the “Median difference Drug Liking Emax” value [1, 11] was 29.0. For the same compound, the “Median difference Overall Drug Liking, 12 hours” value [1, 11] was 16.0, the “Median difference Overall Drug Liking, 24 hours” value [1, 11] was 13.5 and the “Median difference Overall Drug Liking, Emax” value [1, 11] was 18.0. For the same compound, the “Mean difference Take Drug Again, 12 hours” value [1, 12] was 43.3, the “Mean difference Take Drug Again, 24 hours” value [1, 12] was 39.2 and the “Mean difference Take Drug Again, Emax” value [1, 12] was 43.1. The “Median difference Feeling High Emax” value [1, 12] was 67.0, the “Median difference Good Effects Emax” value [1, 12] was 73.0 and the “TEAE Change in sustained attention, % of subjects” value [2] was “(6.7) %”. The “TEAE Change in sustained attention, n subjects” value [2] was 2, the “TEAE Dry mouth, % of subjects” value [2] was “(20.0) %” and the “TEAE Dry mouth, n subjects” value [2] was 6. The “TEAE Energy increased, % of subjects” value [2] was “(3.3) %”, the “TEAE Energy increased, n subjects” value [2] was 1 and the “TEAE Euphoric mood, % of subjects” value [2] was “(56.7) %”. The “TEAE Euphoric mood, n subjects” value [2] was 17, the “TEAE Feeling abnormal, % of subjects” value [2] was “(6.7) %” and the “TEAE Feeling abnormal, n subjects” value [2] was 2. For the same compound, the “TEAE Feeling hot, % of subjects” value [2] was “(20.0) %”, the “TEAE Feeling hot, n subjects” value [2] was 6 and the “TEAE Feeling jittery, % of subjects” value [2] was “(6.7) %”. The “TEAE Feeling jittery, n subjects” value [2] was 2, the “TEAE Feeling of relaxation, % of subjects” value [2] was “(3.3) %” and the “TEAE Feeling of relaxation, n subjects” value [2] was 1. For the same compound, the “TEAE Headache, % of subjects” value [2] was “(3.3) %”, the “TEAE Headache, n subjects” value [2] was 1 and the “TEAE Heart rate increased, % of subjects” value [2] was “(16.7) %”. For the same compound, the “TEAE Heart rate increased, n subjects” value [2] was 5, the “TEAE Hyperhidrosis (sweaty hands), % of subjects” value [2] was “(13.3) %” and the “TEAE Hyperhidrosis (sweaty hands), n subjects” value [2] was 4. For the same compound, the “TEAE Hypervigilance, % of subjects” value [2] was “(33.3) %”, the “TEAE Hypervigilance, n subjects” value [2] was 10 and the “TEAE Nausea, % of subjects” value [2] was “(10.0) %”. The “TEAE Nausea, n subjects” value [2] was 3, the “TEAE Palpitations, % of subjects” value [2] was “(6.7) %” and the “TEAE Palpitations, n subjects” value [2] was 2. The “TEAE Paraesthesia (tingling), % of subjects” value [2] was “(6.7) %”, the “TEAE Paraesthesia (tingling), n subjects” value [2] was 2 and the “TEAE Sinus tachycardia, % of subjects” value [2] was “(13.3) %”. The “TEAE Sinus tachycardia, n subjects” value [2] was 4, the “TEAE Somnolence, % of subjects” value [2] was “(13.3) %” and the “TEAE Somnolence, n subjects” value [2] was 4. For the same compound, the “TEAE Tachycardia, % of subjects” value [2] was “(13.3) %” and the “TEAE Tachycardia, n subjects” value [2] was 4.
